Our source for the inhibition values is ChEMBL document CHEMBL5653615 (J Biol Chem, 2013).

The target of experiment [1] is Serine/threonine-protein kinase PLK2 (Homo sapiens) (UniProt Q9NYY3). As to the kind of experiment: Inhibition of human PLK2 at 1.82 nM by HotSpot assay relative to control.
Experiment [2] deals with Vascular endothelial growth factor receptor 2 (Homo sapiens) (UniProt P35968). Briefly: Inhibition of human KDR at 1.82 nM by HotSpot assay relative to control.
For experiment [3], the target named is Serine/threonine-protein kinase Nek6 (Homo sapiens) (UniProt Q9HC98). As to the kind of experiment: Inhibition of human NEK6 at 1.82 nM by HotSpot assay relative to control.
Sequence of Serine/threonine-protein kinase Nek6 (Homo sapiens) (Q9HC98 whole entry): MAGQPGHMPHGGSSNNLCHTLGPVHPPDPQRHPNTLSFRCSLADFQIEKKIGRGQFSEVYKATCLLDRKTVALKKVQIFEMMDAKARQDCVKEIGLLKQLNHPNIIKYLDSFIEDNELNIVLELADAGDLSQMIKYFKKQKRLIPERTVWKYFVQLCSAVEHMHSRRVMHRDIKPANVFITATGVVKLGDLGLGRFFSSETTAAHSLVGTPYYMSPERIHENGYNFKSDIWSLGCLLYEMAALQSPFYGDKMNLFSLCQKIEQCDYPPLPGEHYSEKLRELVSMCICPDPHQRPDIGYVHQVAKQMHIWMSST
For experiment [4], the target named is Dual specificity protein kinase CLK3 (Homo sapiens) (UniProt P49761). The settings on record: dose 1.82 nM.
Sequence of Dual specificity protein kinase CLK3 (Homo sapiens) (P49761 whole entry, looked up): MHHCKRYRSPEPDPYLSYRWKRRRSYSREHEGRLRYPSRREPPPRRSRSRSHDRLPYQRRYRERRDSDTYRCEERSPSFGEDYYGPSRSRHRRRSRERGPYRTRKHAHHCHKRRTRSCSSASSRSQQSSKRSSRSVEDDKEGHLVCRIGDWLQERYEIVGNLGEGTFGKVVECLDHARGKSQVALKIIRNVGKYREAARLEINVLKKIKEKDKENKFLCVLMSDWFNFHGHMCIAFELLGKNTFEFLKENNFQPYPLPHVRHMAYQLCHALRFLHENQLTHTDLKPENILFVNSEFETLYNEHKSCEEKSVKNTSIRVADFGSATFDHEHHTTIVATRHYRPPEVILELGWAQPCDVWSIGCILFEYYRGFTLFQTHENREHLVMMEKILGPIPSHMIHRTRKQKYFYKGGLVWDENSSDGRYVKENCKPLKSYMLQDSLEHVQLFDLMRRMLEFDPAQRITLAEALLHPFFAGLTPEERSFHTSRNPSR
Description: Inhibition of human CLK3 at 1.82 nM by HotSpot assay relative to control
Experiment [5] has as its target T1, Interleukin-1 receptor-associated kinase 4 (Homo sapiens) (UniProt Q9NWZ3).
T1 sequence (whole entry): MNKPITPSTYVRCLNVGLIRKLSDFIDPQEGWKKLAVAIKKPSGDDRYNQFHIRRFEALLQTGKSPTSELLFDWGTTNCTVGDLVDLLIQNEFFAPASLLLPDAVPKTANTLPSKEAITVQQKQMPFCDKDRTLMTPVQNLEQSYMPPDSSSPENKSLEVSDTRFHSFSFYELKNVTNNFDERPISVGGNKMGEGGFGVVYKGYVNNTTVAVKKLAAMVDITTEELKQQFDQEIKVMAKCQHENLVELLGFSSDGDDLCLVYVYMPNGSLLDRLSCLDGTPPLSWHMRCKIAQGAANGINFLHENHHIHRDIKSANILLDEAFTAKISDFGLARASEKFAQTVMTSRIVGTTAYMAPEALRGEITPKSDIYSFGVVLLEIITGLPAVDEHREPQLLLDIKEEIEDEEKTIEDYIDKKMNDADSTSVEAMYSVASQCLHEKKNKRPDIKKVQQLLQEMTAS
Briefly: Inhibition of human IRAK4 at 1.82 nM by HotSpot assay relative to control.

Experiment [6] addresses MAP kinase-activated protein kinase 3 (Homo sapiens) (UniProt Q16644). Briefly: Inhibition of human MAPKAPK3 at 1.82 nM by HotSpot assay relative to control.
For experiment [7], the target named is T2, Serine/threonine-protein kinase TBK1 (Homo sapiens) (UniProt Q9UHD2).
T2 sequence (whole entry): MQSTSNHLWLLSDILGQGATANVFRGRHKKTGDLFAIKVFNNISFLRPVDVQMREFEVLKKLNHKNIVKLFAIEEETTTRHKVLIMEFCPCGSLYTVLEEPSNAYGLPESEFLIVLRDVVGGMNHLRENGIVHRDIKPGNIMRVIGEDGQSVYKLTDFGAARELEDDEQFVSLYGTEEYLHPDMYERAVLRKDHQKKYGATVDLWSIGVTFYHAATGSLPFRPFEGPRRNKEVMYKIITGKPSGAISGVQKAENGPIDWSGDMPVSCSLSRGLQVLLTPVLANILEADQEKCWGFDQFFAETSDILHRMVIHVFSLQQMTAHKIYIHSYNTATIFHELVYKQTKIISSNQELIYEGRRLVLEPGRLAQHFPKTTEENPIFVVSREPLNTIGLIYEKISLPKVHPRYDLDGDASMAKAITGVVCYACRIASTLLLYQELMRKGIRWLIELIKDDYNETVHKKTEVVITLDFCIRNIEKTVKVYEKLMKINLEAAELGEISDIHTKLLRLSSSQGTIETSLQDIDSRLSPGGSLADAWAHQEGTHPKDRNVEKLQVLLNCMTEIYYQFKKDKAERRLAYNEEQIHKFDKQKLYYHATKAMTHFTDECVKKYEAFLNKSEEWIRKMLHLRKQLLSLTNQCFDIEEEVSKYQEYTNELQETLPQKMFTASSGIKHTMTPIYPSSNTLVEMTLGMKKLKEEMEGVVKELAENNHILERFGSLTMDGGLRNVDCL
Briefly: Inhibition of human TBK1 at 1.82 nM by HotSpot assay relative to control.

Experiment [8] deals with T3, Aurora kinase A (Homo sapiens) (UniProt O14965).
T3 sequence (whole entry): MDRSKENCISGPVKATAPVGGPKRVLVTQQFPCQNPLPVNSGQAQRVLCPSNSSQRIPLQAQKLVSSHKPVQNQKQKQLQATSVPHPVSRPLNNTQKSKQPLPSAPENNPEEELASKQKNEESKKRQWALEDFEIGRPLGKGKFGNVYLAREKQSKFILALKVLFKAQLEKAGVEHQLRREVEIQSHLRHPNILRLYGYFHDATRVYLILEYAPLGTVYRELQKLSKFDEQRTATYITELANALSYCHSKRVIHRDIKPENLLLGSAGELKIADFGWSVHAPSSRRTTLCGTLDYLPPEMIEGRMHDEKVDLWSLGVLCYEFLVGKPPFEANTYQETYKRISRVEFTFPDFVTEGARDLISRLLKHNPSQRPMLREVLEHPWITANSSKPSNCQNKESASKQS
As to the kind of experiment: Inhibition of human Aurora A at 18.6 nM by HotSpot assay relative to control.

Experiment [9] concerns the target T4, Ephrin type-B receptor 1 (Homo sapiens) (UniProt P54762).
T4 sequence (whole entry): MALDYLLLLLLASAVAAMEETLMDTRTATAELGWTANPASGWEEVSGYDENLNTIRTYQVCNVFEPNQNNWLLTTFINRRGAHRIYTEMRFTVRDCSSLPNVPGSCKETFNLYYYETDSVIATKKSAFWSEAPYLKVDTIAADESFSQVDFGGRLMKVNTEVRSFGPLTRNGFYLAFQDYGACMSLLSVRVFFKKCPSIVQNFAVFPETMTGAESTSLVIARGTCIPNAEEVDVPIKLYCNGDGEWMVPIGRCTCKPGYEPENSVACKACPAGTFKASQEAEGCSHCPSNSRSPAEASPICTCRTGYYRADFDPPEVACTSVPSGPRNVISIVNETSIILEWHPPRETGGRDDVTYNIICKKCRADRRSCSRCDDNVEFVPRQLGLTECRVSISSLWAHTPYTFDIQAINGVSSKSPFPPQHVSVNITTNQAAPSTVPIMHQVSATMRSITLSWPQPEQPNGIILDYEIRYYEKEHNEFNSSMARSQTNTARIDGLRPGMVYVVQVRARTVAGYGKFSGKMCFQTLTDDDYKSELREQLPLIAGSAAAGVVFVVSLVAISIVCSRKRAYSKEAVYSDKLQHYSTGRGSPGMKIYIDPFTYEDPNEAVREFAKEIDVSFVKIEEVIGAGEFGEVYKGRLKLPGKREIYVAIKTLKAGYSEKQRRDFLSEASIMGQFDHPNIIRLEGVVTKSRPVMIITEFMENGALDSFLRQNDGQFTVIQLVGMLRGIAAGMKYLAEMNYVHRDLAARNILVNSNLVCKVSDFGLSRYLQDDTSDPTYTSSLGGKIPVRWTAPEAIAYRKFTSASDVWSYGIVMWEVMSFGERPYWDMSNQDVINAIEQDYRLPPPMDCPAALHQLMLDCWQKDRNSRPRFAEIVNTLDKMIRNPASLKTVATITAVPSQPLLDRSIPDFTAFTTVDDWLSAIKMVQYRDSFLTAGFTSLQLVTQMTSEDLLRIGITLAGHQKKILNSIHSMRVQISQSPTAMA
Briefly: Inhibition of human EPHB1 at 18.6 nM by HotSpot assay relative to control.

Sequence of MAP kinase-activated protein kinase 3 (Homo sapiens) (Q16644 whole entry, looked up): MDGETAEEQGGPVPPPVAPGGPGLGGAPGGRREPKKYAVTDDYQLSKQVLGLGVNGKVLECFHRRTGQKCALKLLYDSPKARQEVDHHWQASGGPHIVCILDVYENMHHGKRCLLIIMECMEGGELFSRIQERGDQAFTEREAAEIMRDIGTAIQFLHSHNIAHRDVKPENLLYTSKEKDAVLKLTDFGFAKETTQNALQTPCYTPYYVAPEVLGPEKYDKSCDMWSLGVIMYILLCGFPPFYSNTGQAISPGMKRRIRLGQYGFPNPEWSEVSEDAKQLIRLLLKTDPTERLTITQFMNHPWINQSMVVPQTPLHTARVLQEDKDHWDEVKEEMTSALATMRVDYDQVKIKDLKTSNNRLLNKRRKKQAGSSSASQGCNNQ
Sequence of Vascular endothelial growth factor receptor 2 (Homo sapiens) (P35968 whole entry): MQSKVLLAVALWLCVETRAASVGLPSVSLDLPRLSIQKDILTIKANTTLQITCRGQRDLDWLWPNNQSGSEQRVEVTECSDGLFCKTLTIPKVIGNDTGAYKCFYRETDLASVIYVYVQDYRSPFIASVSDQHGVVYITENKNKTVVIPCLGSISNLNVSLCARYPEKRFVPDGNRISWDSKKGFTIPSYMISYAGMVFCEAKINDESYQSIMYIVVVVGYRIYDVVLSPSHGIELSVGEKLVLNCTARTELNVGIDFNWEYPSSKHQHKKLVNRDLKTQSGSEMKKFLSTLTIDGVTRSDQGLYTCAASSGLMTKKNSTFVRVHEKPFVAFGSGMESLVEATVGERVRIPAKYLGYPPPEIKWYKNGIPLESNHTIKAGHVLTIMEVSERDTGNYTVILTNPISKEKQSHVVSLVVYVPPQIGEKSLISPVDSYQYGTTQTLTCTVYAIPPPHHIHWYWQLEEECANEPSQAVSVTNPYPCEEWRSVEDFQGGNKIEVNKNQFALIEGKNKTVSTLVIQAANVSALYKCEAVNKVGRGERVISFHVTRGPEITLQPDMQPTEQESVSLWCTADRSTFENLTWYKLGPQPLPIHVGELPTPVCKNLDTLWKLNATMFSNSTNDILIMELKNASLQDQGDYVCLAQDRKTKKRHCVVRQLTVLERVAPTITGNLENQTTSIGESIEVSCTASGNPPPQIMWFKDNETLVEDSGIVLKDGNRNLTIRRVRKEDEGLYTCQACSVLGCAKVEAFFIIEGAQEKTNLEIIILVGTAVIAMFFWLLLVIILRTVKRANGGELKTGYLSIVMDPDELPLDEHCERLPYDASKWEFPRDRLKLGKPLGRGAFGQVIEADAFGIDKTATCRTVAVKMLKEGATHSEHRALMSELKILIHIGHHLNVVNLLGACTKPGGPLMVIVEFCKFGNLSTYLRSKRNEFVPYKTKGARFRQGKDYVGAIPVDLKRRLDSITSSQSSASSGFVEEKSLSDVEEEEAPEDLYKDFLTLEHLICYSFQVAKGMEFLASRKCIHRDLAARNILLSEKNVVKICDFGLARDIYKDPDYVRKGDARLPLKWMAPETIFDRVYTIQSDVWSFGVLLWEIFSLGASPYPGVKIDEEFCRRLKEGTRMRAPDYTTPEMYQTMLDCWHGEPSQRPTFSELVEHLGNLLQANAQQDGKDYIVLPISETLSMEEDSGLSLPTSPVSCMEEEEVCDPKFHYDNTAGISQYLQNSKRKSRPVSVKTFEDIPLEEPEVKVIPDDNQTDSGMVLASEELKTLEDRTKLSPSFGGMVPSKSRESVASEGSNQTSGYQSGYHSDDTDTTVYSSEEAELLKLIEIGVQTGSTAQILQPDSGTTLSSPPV
Sequence of Serine/threonine-protein kinase PLK2 (Homo sapiens) (Q9NYY3 whole entry, looked up): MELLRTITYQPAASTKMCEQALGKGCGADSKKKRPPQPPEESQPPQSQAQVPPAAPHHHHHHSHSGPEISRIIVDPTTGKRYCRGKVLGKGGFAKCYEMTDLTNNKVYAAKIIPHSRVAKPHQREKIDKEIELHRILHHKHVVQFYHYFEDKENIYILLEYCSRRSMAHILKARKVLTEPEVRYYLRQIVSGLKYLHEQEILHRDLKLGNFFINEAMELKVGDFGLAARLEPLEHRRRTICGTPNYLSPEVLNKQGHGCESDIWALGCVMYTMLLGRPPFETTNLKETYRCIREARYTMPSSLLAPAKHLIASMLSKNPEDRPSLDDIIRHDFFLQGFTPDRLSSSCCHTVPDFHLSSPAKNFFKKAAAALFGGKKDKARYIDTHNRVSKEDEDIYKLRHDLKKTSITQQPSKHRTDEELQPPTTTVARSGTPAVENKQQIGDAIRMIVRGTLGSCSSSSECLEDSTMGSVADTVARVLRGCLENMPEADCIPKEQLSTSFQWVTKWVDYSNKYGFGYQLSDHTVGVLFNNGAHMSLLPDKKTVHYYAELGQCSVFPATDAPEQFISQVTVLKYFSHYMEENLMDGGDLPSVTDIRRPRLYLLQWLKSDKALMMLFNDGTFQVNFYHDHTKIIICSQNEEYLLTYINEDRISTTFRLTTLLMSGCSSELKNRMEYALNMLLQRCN

On to `C[C@@]1(C(=O)Nc2ccc(F)nc2)CCCN1c1nc(Nc2cc(C3CC3)n[nH]2)c2cccn2n1`, for which the inhibition (commonly the change of the read-out against control, counted positive when it falls) in experiment [1] was 1.2%; in experiment [2], 3.67%; in [3], 5.33%; in experiment [4], -1.35%; in [5], -4.67%; in [6], -1.61%. In addition, the inhibition in experiment [7] was 7.68%.
Turning to `C[C@]1(O)C[C@@H](c2nc(-c3ccc4ccc(-c5ccccc5)nc4c3)c3c(N)nccn32)C1`, the inhibition in experiment [8] was -2.4%; in [9] it was -4.68%.
